Experimental findings from patent US20210259251A1, “[…] PREVENT AND CONTROL FUNGAL PATHOGENS” (priority 2018, published 2021) are described below.

Each structure is given as a SMILES string. “Also recorded” adds a separate entry of the source. Like-named read-outs stand apart in the source and are kept apart here.

For one assay, the system named is Hemenoscyphus fraxineus. In words: In vitro antifungal assay (mycelial growth on PDA). The conditions noted are these: read-out: ED50.
The subject of the next assay is Colletotrichum dematium. In words: In vitro antifungal assay (mycelial growth on PDA). The conditions noted are these: read-out: ED50.
In another assay the test system is Fusarium oxysporum. In words: In vitro fungal bioassay, fungitoxic activity. The conditions noted are these: maximal concentration 1500 μM; for fungitoxic activity against Fusarium oxysporum (in words): in vitro; for ED95 F. oxysporum: Table 2, effect in 95% of the population.
In another assay the test system is Botrytis cinerea. In words: In vitro fungal bioassay, fungitoxic activity. The conditions noted are these: for fungitoxic activity against Botrytis cinerea (in words): in vitro, dose range between 10 and 1500 μM; for ED95 Botrytis cinerea: effect in 95% of the population, maximal concentration 1500 μM.
A further assay has as its system Septoria tritici. The assay can be described thus: In vitro antifungal assay (mycelial growth on PDA). The conditions noted are these: Zymoseptoria tritici, read-out: ED50.
For the next assay, the system named is Serpula lacrymans. The assay can be described thus: In vitro antifungal assay (mycelial growth on PDA). The conditions noted are these: read-out: ED50.
Assay [1] deals with Fusarium gramineum. In words: Fungitoxic activity of combined isothiocyanates, 48 well plates, synergy (CompuSyn).
Experimental: (§1) Applicants examined fungitoxic activities of combined isothiocyanates in three necrotrophic fungal species, i.e. Alternaria radicina (class: Dothideomycetes; order: Pleosporales; host: carrot), Fusarium gramineum (class: Sordariomycetes; order: Hypocreales; host: cereals) and Plectosphaerella cucumerina (class: Sordariomycetes; order: Glomerellales; host: tomato and cucurbits).
(§2) Fungitoxic activities were tested in 48 well tissue culture plates. […] Synergistic fungitoxic activities was then estimated as in Chou (2006), and the CompuSyn software (www.combosyn.com) was used to determine the Combination Index (CI) for combinations of two molecules and the presence of synergism (CI<1).
In assay [2] the test system is Plectosphaerella cucumerina. The description is as above.
Experimental: as §1, §2
The subject of the next assay is Alternaria radicina. Described as above.
Assay [3] has as its system Fusarium gramineum. In words: microbe, parasite or virus in culture. The conditions noted are these: for EC50: read-out: ED50 F. gramineum. It is filed as cell-based.
A further assay concerns Phytophthora cactorum. In words: microbe, parasite or virus in culture. It counts as cell-based.
In a further assay the test system is Guignardia bidwellii. In words: In vitro fungal bioassay, fungitoxic activity. The conditions noted are these: Phyllosticta ampelicida; Table 5; unit from the concentration series of the method; read-out: ED50 G. bidwellii. It is filed as cell-based.
A further assay deals with Phytophthora infestans. The assay can be described thus: microbe, parasite or virus in culture. It is filed as cell-based. The conditions noted are these: read-out: ED50 P. infestans.
Setting [4] is: 168 h, read-out: EC50 Molecule 2.
Setting [5] is: Table 3, maximal dosage 1500 μM.
Where [6] appears, read: 168 h, read-out: EC50 Molecule 2, Alternaria radicina, second molecule alone, range 10-850 μM, 850 = no fungitoxic activity in the tested range.
The mark [7] stands for this setting: read-out: EC50 Molecule 1, Alternaria radicina, first molecule alone, range 10-850 μM, 850 = no fungitoxic activity in the tested range.
Setting [8] is: 168 h, read-out: EC50 Molecule 1.
Setting [9] is: Fusarium, Table 5, unit from the concentration series of the method.

Experimental for Alternaria radicina: as §1, §2

On to `CS(=O)(=O)CCCCCCCN=C=S` [7-methylsulfonyl-heptyl isothiocyanate], for which the EC50 in the assay with Hemenoscyphus fraxineus was determined as 770 µM; in the assay on Colletotrichum dematium, 650 µM; in the assay on Septoria tritici, 350 µM; in the assay on Serpula lacrymans, 150 µM. Besides, the “fungitoxic activity against Fusarium oxysporum (in words)” value with Fusarium oxysporum is reported as “non-active”. Also, in the assay on Botrytis cinerea, the “fungitoxic activity against Botrytis cinerea (in words)” value is “no fungitoxic activity; also recorded: non-active”.
For `C[S+]([O-])CCCN=C=S` (centres unmarked) [Molecule 3MSOH, 1-Isothiocyanato-3-(methylsulfinyl)-propane], the EC50 with Fusarium gramineum [1] (setting [4]) amounted to 525 µM; with Fusarium gramineum [1] (read-out: EC50 Molecule 2), 525 µM; in assay [2] (setting [4]) it was 627 µM; in the assay on Alternaria radicina (setting [4]) it was 786 µM.
Consider `CS(=O)(=O)CCCN=C=S` [Molecule 3MSOOH, 1-Isothiocyanato-3-(methylsulfonyl)-propane], for which the EC50 with Fusarium gramineum [1] (setting [4]) was 387 µM; with Fusarium gramineum [1] (read-out: EC50 Molecule 2), 387 µM; in assay [2] (setting [4]), 536 µM; with Alternaria radicina (setting [4]) it was 469 µM.
Take `C[S+]([O-])CCCCN=C=S` (centres unmarked) [Molecule 4MSOH, 1-Isothiocyanato-4-(methylsulfinyl)-butane]: in the assay on Fusarium gramineum [3] (Fusarium), the EC50 was found to be 628 µM. In the assay on Phytophthora cactorum, the “ED50 P. cactorum” value is <1500 µM.
Regarding `C[S+]([O-])CCCCCN=C=S` (centres unmarked) [Molecule 5MSOH, 1-isothiocyanato-5-(methylsulfinyl)-pentane], the “ED95 Botrytis cinerea” value with Botrytis cinerea (Table 4) is <1500 µM. The “fungitoxic activity against Botrytis cinerea (in words)” value in the assay on Botrytis cinerea is reported as “none of these single compounds revealed fungitoxic effect”.
`CS(=O)(=O)CCCCCN=C=S` [Molecule 5MSOOH, 1-Isothiocyanato-5-(methylsulfonyl)-pentane]: the “ED95 Botrytis cinerea” value with Botrytis cinerea (Table 4) was <1500 µM. For the same compound, the “fungitoxic activity against Botrytis cinerea (in words)” value in the assay with Botrytis cinerea is listed as “none of these single compounds revealed fungitoxic effect”.
As for `CS(=O)(=O)CCCCCCN=C=S` [Molecule 6MSOOH, 1-Isothiocyanato-6-(methylsulfonyl)-hexane], in the assay with Fusarium gramineum [3] (setting [5]), the EC50 is <1500 µM. In the assay with Fusarium gramineum [3] (in the dosage of 1500 μM), the “fungistatic effect on Fusarium gramineum (in words)” value was “not fungistatic”. Further, the “ED50 P. cactorum” value with Phytophthora cactorum (setting [5]) was <1500 µM.
As for `C[S+]([O-])CCCCCCCN=C=S` (centres unmarked) [Molecule 7MSOH, 1-Isothiocyanato-7-(methylsulfinyl)-heptane], the EC50 in the assay with Fusarium gramineum [1] (setting [4]) is 586 µM; in the assay with Fusarium gramineum [1] (read-out: EC50 Molecule 2) it was 586 µM; in [2] (setting [4]), 337 µM; with Alternaria radicina (setting [6]) it was 537 µM.
On to `C[S+]([O-])CCCCc1cccc(CN=C=S)c1` (centres unmarked) [Molecule 8ASOH, 1-(isothiocyanatomethyl)-3-(4-(methylsulfinyl)butyl)benzene], for which the EC50 in the assay on Alternaria radicina (setting [7]) turned out to be 723 µM.
Consider `CS(=O)(=O)CCCCc1cccc(CN=C=S)c1` [Molecule 8ASOOH, 1-(isothiocyanatomethyl)-3-(4-(methylsulfonyl)butyl)benzene], for which the EC50 with Alternaria radicina (setting [6]) was > 850 µM.
Consider `C[S+]([O-])CCCCC/C=C/CN=C=S` (centres unmarked) [Molecule 8CSOH, (E)-1-isothiocyanato-8-(methylsulfinyl)oct-2-ene], for which the EC50 is > 850 µM in the assay on Fusarium gramineum [1] (setting [8]); > 850 µM in the assay with Fusarium gramineum [1] (read-out: EC50 Molecule 1); 273 µM in assay [2] (read-out: EC50 Molecule 1); 472 µM in the assay with Alternaria radicina (setting [7]); 704 µM in the assay with Alternaria radicina (read-out: EC50 Molecule 1, first molecule alone, range 10-850 μM, 850 = no fungitoxic activity in the tested range).
Turning to `CC[S+]([O-])CCCCCCCCN=C=S` (centres unmarked) [Molecule 8ESOH, 1-(ethylsulfinyl)-8-isothiocyanatooctane], the EC50 in the assay on Fusarium gramineum [1] (setting [8]) was 533 µM; in the assay on Fusarium gramineum [1] (read-out: EC50 Molecule 1) it was 533 µM; with Alternaria radicina (setting [6]), 472 µM.
With `CCS(=O)(=O)CCCCCCCCN=C=S` [Molecule 8ESOOH, 1-(ethylsulfonyl)-8-isothiocyanatooctane], the EC50 in the assay on Alternaria radicina (setting [6]) is > 850 µM.
As for `C[S+]([O-])CCCCCCCCN=C=S` (centres unmarked) [Molecule 8MSOH, 1-Isothiocyanato-8-(methylsulfinyl)-octane], the EC50 amounted to 317 µM in the assay with Fusarium gramineum [1] (setting [8]); 317 µM with Fusarium gramineum [1] (setting [4]); 317 µM with Fusarium gramineum [1] (read-out: EC50 Molecule 1); 292 µM in the assay with Fusarium gramineum [3] (setting [9]); 30.4 µM in the assay on Guignardia bidwellii; 26.4 µM with Phytophthora infestans. Also, the “ED95 F. oxysporum” value in the assay with Fusarium oxysporum is <1500 µM. Also, the “fungitoxic activity against Fusarium oxysporum (in words)” value with Fusarium oxysporum is on record as “no fungitoxic effect”. The “ED95 Botrytis cinerea” value in the assay with Botrytis cinerea (Table 2) and in the assay on Botrytis cinerea (Table 4) was <1500 µM each time. For the same compound, in the assay with Botrytis cinerea, the “fungitoxic activity against Botrytis cinerea (in words)” value is “no fungitoxic effect; also recorded: none of these single compounds revealed fungitoxic effect”.
On to `CS(=O)(=O)CCCCCCCCN=C=S` [Molecule 8MSOOH, 1-Isothiocyanato-8-(methylsulfonyl)-octane], for which the EC50 was > 850 µM in the assay on Fusarium gramineum [1] (setting [8]); 464 µM with Fusarium gramineum [3] (Fusarium, Table 3, maximal dosage 1500 μM); 22.2 µM with Fusarium gramineum [3] (setting [9]); > 850 µM in assay [2] (read-out: EC50 Molecule 1); 628 µM with Phytophthora cactorum (Phytophthora cactorum, read-out: ED50 P. cactorum); 464 µM in the assay with Guignardia bidwellii. Moreover, the EC50 with Phytophthora infestans was 350 µM. Besides, the “ED95 F. oxysporum” value with Fusarium oxysporum is <1500 µM. For the same compound, in the assay on Fusarium oxysporum, the “fungitoxic activity against Fusarium oxysporum (in words)” value is on record as “no fungitoxic effect”. In addition, the “ED95 Botrytis cinerea” value in the assay with Botrytis cinerea (Table 2) and with Botrytis cinerea (Table 4) was <1500 µM each time. In addition, the “fungitoxic activity against Botrytis cinerea (in words)” value in the assay with Botrytis cinerea is given as “no fungitoxic effect; also recorded: none of these single compounds revealed fungitoxic effect”.
For the compound `CS(=O)(=O)CCCCCCCCC#N` [Molecule 8MSOON, 8-(methylsulfonyl)octylnitrile], the “ED95 F. oxysporum” value in the assay with Fusarium oxysporum was <1500 µM. Besides, in the assay on Botrytis cinerea (Table 2), the “ED95 Botrytis cinerea” value is <1500 µM.
As to `C[S+]([O-])CCCCCCCCCN=C=S` (centres unmarked) [Molecule 9MSOH, 1-Isothiocyanato-9-(methylsulfinyl)-nonane], in the assay with Fusarium gramineum [1] (setting [4]), the EC50 is 553 µM.
For `CS(=O)(=O)CCCCCCCCCN=C=S` [Molecule 9MSOOH, 1-Isothiocyanato-9-(methylsulfonyl)-nonane], in the assay with Fusarium gramineum [1] (setting [4]), the EC50 was > 850 µM.
